Some results are limits rather than exact numbers.

The subject of the first assay is HIV-1. As to the kind of experiment: HIV-1 single-round infectious luciferase reporter virus (pseudotype) assay in HeLa CD4 CCR5 cells. The assay is classed as cell-based. Conditions: Human immunodeficiency virus 1, HeLa-CD4/CCR5, read-out: EC50 Group from TABLE 1, HeLa CD4 CCR5 cells, single-round infectious luciferase reporter virus. The protocol: • Virus production—Human embryonic Kidney cell line, 293, propagated in Dulbecco's Modified Eagle Medium (Life Technologies, Gaithersburg, Md.) containing 10% fetal Bovine serum (FBS, Sigma, St. Louis, Mo.). • Virus infection—Human epithelial cell line, HeLa, expressing the HIV-1 receptors CD4 and CCR^5 was propagated in Dulbecco's Modified Eagle Medium (Life Technologies, Gaithersburg, Md.) containing 10% fetal Bovine serum (FBS, Sigma, St. Louis, Mo.) and supplemented with 0.2 mg/mL Geneticin (Life Technologies, Gaithersburg, Md.) and 0.4 mg/mL Zeocin (Invitrogen, Carlsbad, Calif.). […] Transfections were performed using lipofectAMINE PLUS reagent as described by the manufacturer (Life Technologies, Gaithersburg, Md.). Experiment • 1. Compound was added to HeLa CD4 CCR5 cells plated in 96 well plates at a cell density of 5×10^4 cells per well in 100 μl Dulbecco's Modified Eagle Medium containing 10% fetal Bovine serum at a concentration of […]. • 2. 100 μl of single-round infectious reporter virus in Dulbecco's Modified Eagle Medium was then added to the plated cells and compound at an approximate multiplicity of infection (MOI) of 0.01, resulting in a final volume of 200 μl per well and a final compound concentration of <10 μM. • 3. Samples were harvested 72 h after infection. • 4. Viral infection was monitored by measuring luciferase expression from viral DNA in the infected cells using a luciferase reporter gene assay kit (Roche Molecular Biochemicals, Indianapolis, Ind.). Infected cell supernatants were removed and 50 μl of Dulbecco's Modified Eagle Medium (without phenol red) and 50 μl of luciferase assay reagent reconstituted as described by the manufacturer (Roche Molecular Biochemicals, Indianapolis, Ind.) was added per well. Luciferase activity was then quantified by measuring luminescence using a Wallac microbeta scintillation counter. • 5. […] An EC50 provides a method for comparing the antiviral potency of the compounds of this invention. The effective concentration for fifty percent inhibition (EC50) was calculated with the Microsoft Excel Xlfit curve fitting software. For each compound, curves were generated from percent inhibition calculated at 10 different concentrations by using a four paramenter logistic model (model 205). Table 1 is the key for the data in Tables 2-4. Cytoxicity assays were conducted with the same HeLa using methodology well known in the art.
In Table 5, X2, X4 etc. indicates the point of attachment. […] The data at 10 μM was calculated in the following manner:
For compounds tested at concentrations less than 10 μM, the percent inhibition at 10 μM was determined by extrapolation using the XLfit curve fitting feature of the Microsoft Excel spreadsheet software. Curves were obtained from 10 data points (% inhibition determined at 10 concentrations of compound) by using a four parameter logistic model (XLfit model 205: y=A+((B−A)/(I+((C/x)^D))), where, A=minimum y, B=maximum y, C=logEC50, D=slope factor, and x and y are known data values. Extrapolations were performed with the A and B parameters unlocked. […]
Regarding `COc1cnc(-n2nccc2N)c2[nH]cc(C(=O)C(=O)N3CCN(C(=O)c4ccccc4)CC3)c12` [Example 252, 1-benzoyl-4-[(4-methoxy-7-(5-amino-pyrazol-1-yl)-6-azaindol-3-yl)-oxoacetyl]piperazine], the EC50 was less than 1000 nM.

`COc1ncn(-c2ncc(OC)c3c(C(=O)C(=O)N4CCN(C(=O)c5ccccc5)CC4)c[nH]c23)n1` [Example 291, 1-benzoyl-4-[(4-methoxy-7-(3-methoxy-[1,2,4]triazol-1-yl)-6-azaindol-3-yl)-oxoacetyl]piperazine]: the EC50 was less than 1000 nM.

In the case of `O=C(NCCN1CCOCC1)c1cc(-c2ncc(F)c3c(C(=O)C(=O)N4CCN(C(=O)c5ccccc5)CC4)c[nH]c23)n[nH]1` [Example 213], the half-maximal effective concentration (EC50) was less than 1000 nM.

As for `COc1cnc(-n2ccc(CC(C)O)n2)c2[nH]cc(C(=O)C(=O)N3CCN(C(=O)c4ccccc4)CC3)c12` (centres unmarked) [Example 277, 1-benzoyl-4-[(4-methoxy-7-(3-(2-hydroxylpropyl)-pyrazol-1-yl)-6-azaindol-3-yl)-oxoacetyl]piperazine], the EC50 was less than 1000 nM.

Turning to `CCOC(=O)c1ccc(OCc2ccn(-c3ncc(OC)c4c(C(=O)C(=O)N5CCN(C(=O)c6ccccc6)CC5)c[nH]c34)n2)cc1` [Example 285, 1-benzoyl-4-[(4-methoxy-7-(3-(4-ethoxycarbonyl-phenyl)oxymethyl-pyrazol-1-yl)-6-azaindol-3-yl)-oxoacetyl]piperazine], the 50% effective concentration (EC50) was less than 1000 nM.

Take `COc1cnc(-c2cccc(N)n2)c2[nH]cc(C(=O)C(=O)N3CCN(C(=O)c4ccccc4)CC3)c12` [Example 75, 1-benzoyl-4-[(4-methoxy-7-(2-aminopyridin-6-yl)-6-azaindol-3-yl)-oxoacetyl]piperazine]: the EC50 was less than 1000 nM.

Regarding `COc1cnc(-c2ccccn2)c2[nH]cc(C(=O)C(=O)N3CCN(C(=O)c4ccccc4)CC3)c12` [Example 36, 1-benzoyl-4-[(4-methoxy-7-(pyridin-2-yl)-6-azaindol-3-yl)-oxoacetyl]piperazine], the EC50 is less than 1000 nM.

For the compound `COc1cnc(-c2ccoc2)c2[nH]cc(C(=O)C(=O)N3CCN(C(=O)c4ccccc4)CC3)c12` [Example 81, 1-benzoyl-4-[(4-methoxy-7-(furan-3-yl)-6-azaindol-3-yl)-oxoacetyl]piperazine], the EC50 is less than 1000 nM.

On to `COc1cnc(-c2cnc(N)nc2)c2[nH]cc(C(=O)C(=O)N3CCN(C(=O)c4ccccc4)CC3)c12` [Example 24], for which the EC50 is less than 1000 nM.

For `C[C@@H]1CN(C(=O)c2ccccc2)CCN1C(=O)C(=O)c1c[nH]c2c(-c3ccc(N)nc3)nccc12` [Example 113, (R)-1-benzoyl-3-methyl-4-[(7-(2-amino-pyridin-5-yl)-6-azaindol-3-yl)-oxoacetyl]piperazine], the EC50 was less than 1000 nM.

On to `COc1cnc(-n2ccc(COC(=O)CC(C)(C)C(=O)O)n2)c2[nH]cc(C(=O)C(=O)N3CCN(C(=O)c4ccccc4)[C@H](C)C3)c12` (stereo in doubt) [Example 295, 2,2-Dimethyl-succinic acid 4-(1-{3-[2-(4-benzoyl-3-methyl-piperazin-1-yl)-2-oxo-acetyl]-4-methoxy-1H-pyrrolo[2,3-c]pyridin-7-yl}-1H-pyrazol-3-ylmethyl) ester], for which the EC50 was less than 1000 nM.

Consider `CCCS(=O)(=O)c1ncn(-c2ncc(OC)c3c(C(=O)C(=O)N4CCN(C(=O)c5ccccc5)CC4)c[nH]c23)n1` [Example 290, 1-benzoyl-4-[(4-methoxy-7-(3-(propane-1-sulfonyl)-[1,2,4]triazol-1-yl)-6-azaindol-3-yl)-oxoacetyl]piperazine], for which the 50% effective concentration (EC50) was less than 1000 nM.

As to `O=C(O)c1ccc(-c2nccc3c(C(=O)C(=O)N4CCN(C(=O)c5ccccc5)CC4)c[nH]c23)cc1` [Example 4, 1-benzoyl-4-[(7-(4-carboxy-phenyl)-6-azaindol-3-yl)-oxoacetyl]piperazine], the EC50 is less than 1000 nM.

For `COc1cnc(-n2ccc(-c3cccc(C(F)(F)F)c3)n2)c2[nH]cc(C(=O)C(=O)N3CCN(C(=O)c4ccccc4)CC3)c12` [Example 287, 1-benzoyl-4-[(4-methoxy-7-(3-(3-trifluoromethyl-phenyl)-pyrazol-1-yl)-6-azaindol-3-yl)-oxoacetyl]piperazine], the 50% effective concentration (EC50) was less than 1000 nM.

As to `C[C@@H]1CN(C(=O)c2ccccc2)CCN1C(=O)C(=O)c1c[nH]c2c(-c3ccc(O)cn3)nccc12` [Example 124], the EC50 was less than 1000 nM.

`COc1cnc(-c2cnc(C(=O)NC(C)(C)C)cn2)c2[nH]cc(C(=O)C(=O)N3CCN(C(=O)c4ccccc4)CC3)c12` [Example 15, 1-benzoyl-4-[(4-methoxy-7-(2-(1,1-dimethylethylaminocarbonyl)-pyrazin-5-yl)-6-azaindol-3-yl)-oxoacetyl]piperazine]: the EC50 was less than 1000 nM.

On to `COc1cnc(-n2cnc(CCC(=O)O)c2)c2[nH]cc(C(=O)C(=O)N3CCN(C(=O)c4ccccc4)CC3)c12` [Example 329], for which the half-maximal effective concentration (EC50) is less than 1000 nM.

On to `COc1cccc(-c2ncc(OC)c3c(C(=O)C(=O)N4CCN(C(=O)c5ccccc5)CC4)c[nH]c23)n1` [Example 77, 1-benzoyl-4-[(4-methoxy-7-(2-methoxy-pyridin-6-yl)-6-azaindol-3-yl)-oxoacetyl]piperazine], for which the EC50 was less than 1000 nM.

`COc1cnc(-c2cncs2)c2[nH]cc(C(=O)C(=O)N3CCN(C(=O)c4ccccn4)CC3)c12` [Example 151, 1-picolinoyl-4-[(4-methoxy-7-(thiazol-5-yl)-6-azaindol-3-yl)-oxoacetyl]piperazine]: the EC50 is less than 1000 nM.

The same assay, now with this note: Human immunodeficiency virus 1, HeLa-CD4/CCR5, read-out: EC50 Group from Table 1, Table 2-1; HeLa CD4 CCR5 cells, single-round luciferase reporter virus.
In the case of `COc1cnc(-c2cnccn2)c2[nH]cc(C(=O)C(=O)N3CCN(C(=O)c4ccccn4)C(C)C3)c12` (centres unmarked) [Example 194, 2-methyl-1-picolinoyl-4-[(4-methoxy-7-(pyrazin-2-yl)-6-azaindol-3-yl)-oxoacetyl]piperazine], the EC50 is less than 1000 nM.

In the case of `COc1cnc(-c2nc(-c3ccccc3)n[nH]2)c2[nH]cc(C(=O)C(=O)N3CCN(C(=O)c4ccccc4)[C@H](C)C3)c12` [Example 335], the EC50 is less than 1000 nM.

With `COc1cnc(-n2ccc(C(F)(F)F)n2)c2[nH]cc(C(=O)C(=O)N3CCN(C(=O)c4ccccc4)[C@H](C)C3)c12` [Example 244, (R)-1-benzoyl-2-methyl-4-[(4-methoxy-7-(3-trifluoromethyl-pyrazol-1-yl)-6-azaindol-3-yl)-oxoacetyl]piperazine], the EC50 is less than 1000 nM.

The assay is the same for the next values; noted with them: Human immunodeficiency virus 1, HeLa-CD4/CCR5, read-out: EC50 Group from Table 1, Table 4; HeLa CD4 CCR5 cells, single-round luciferase reporter virus.
On to `CCOC(=O)c1cc(-c2ccnc3c(C(=O)C(=O)N4CCN(C(=O)c5ccccc5)CC4)c[nH]c23)n[nH]1` [Example 202, 5-{3-[2-(4-Benzoyl-piperazin-1-yl)-2-oxo-acetyl]-1H-pyrrolo[3,2-b]pyridin-7-yl}-2H-pyrazole-3-carboxylic acid ethyl ester], for which the EC50 is less than 1000 nM.

`C[C@@H]1CN(C(=O)c2ccccc2)CCN1C(=O)C(=O)c1c[nH]c2c(C(=O)Nc3nccs3)ccnc12` [Example 137, (R)-1-benzoyl-3-methyl-4-[(7-(thiazol-2-yl)aminocarbonyl-4-azaindol-3-yl)-oxoacetyl]piperazine]: the EC50 is less than 1000 nM.

For `C[C@@H]1CN(C(=O)c2ccccc2)CCN1C(=O)C(=O)c1c[nH]c2c(-c3cnco3)cc(Cl)nc12` [Example 63, 1-benzoyl-3-(R)-methyl-4-[(5-chloro-7-(oxazol-5-yl)-4-azaindol-3-yl)-oxoacetyl]piperazine], the EC50 was less than 1000 nM.

Consider `CC(=O)c1ccc(-c2ccnc3c(C(=O)C(=O)N4CCN(C(=O)c5ccccc5)CC4)c[nH]c23)s1` [Example 132], for which the EC50 is less than 1000 nM.

Source of the values: US20050090522A1 (priority 2001, published 2005).
